# Measurements published in ChEMBL document CHEMBL1142807, “Diprolyl nitriles as potent dipeptidyl peptidase IV inhibitors” (Bioorg Med Chem Lett, 2005).
# Experiment: Inhibitory activity against Dipeptidyl peptidase IV
row,Compound,Ki
1,"CC(C)(C)OC(=O)NC1CN[C@H](C(=O)N2[C@H](C#N)C[C@@H]3C[C@@H]32)C1 (single isomer, unassigned)",0.492 µM
2,CC1(C)CCN[C@@H]1C(=O)N1[C@H](C#N)C[C@@H]2C[C@@H]21,0.037 µM
3,N#C[C@@H]1C[C@@H]2C[C@@H]2N1C(=O)[C@@H]1CCN1,> 10 µM
4,N#C[C@@H]1C[C@@H]2C[C@@H]2N1C(=O)[C@@H]1CCCN1,0.305 µM
5,CC[C@H]1CCN[C@@H]1C(=O)N1[C@H](C#N)C[C@@H]2C[C@@H]21,0.29 µM
6,N#C[C@@H]1C[C@@H]2C[C@@H]2N1C(=O)[C@H]1CCCN1,> 10 µM
7,N#C[C@@H]1C[C@@H]2C[C@@H]2N1C(=O)[C@@H]1C[C@@H]2C[C@@H]2N1,> 10 µM
8,C[C@H]1CCN[C@@H]1C(=O)N1[C@H](C#N)C[C@@H]2C[C@@H]21,0.126 µM
9,N#C[C@@H]1C[C@@H]2C[C@@H]2N1C(=O)[C@H]1NC[C@@H]2C[C@@H]21,0.052 µM
10,CC(C)(C)CC(=O)N[C@@H]1CN[C@H](C(=O)N2[C@H](C#N)C[C@@H]3C[C@@H]32)C1,0.133 µM
11,N#C[C@@H]1C[C@@H]2C[C@@H]2N1C(=O)[C@@H]1C[C@H](NC(=O)OCC2c3ccccc3-c3ccccc32)CN1,0.057 µM
12,N#C[C@@H]1C[C@@H]2C[C@@H]2N1C(=O)[C@@H]1CCCCN1,> 10 µM
13,CC(C)(C)OC(=O)N[C@@H]1CN[C@H](C(=O)N2[C@H](C#N)C[C@@H]3C[C@@H]32)C1,0.14 µM
14,N#C[C@@H]1C[C@@H]2C[C@@H]2N1C(=O)[C@@H]1C[C@H](NS(=O)(=O)c2ccc(Cl)cc2)CN1,0.039 µM

# Experiment: Half Life at 37 degree C and 10 uM in pH 7.0 buffer
# Type: ADME
row,Compound,half-life at 10 µM
1,N#Cc1ccc(NC2CN[C@H](C(=O)N3[C@H](C#N)C[C@@H]4C[C@@H]43)C2)cc1Cl (stereo not given in full),15 h
